Where two headings read alike, the source gives them in different places. Blank lines part the entries; values can stand above or below the molecule they belong to.
Experiments:
[1] = biological target: T1, GST_SH3_p130Cas recombinant protein (SH3 domain of p130Cas) (Homo sapiens, UniProt P56945); experiment: Fluorescence quenching of Fl-GST_SH3_p130Cas by compounds; assay type: binding
T1 construct: fragment of p130Cas protein (aminoacids 3–71); made in house; host or cells: Escherichia coli BL21
T1 sequence (P56945 3-71): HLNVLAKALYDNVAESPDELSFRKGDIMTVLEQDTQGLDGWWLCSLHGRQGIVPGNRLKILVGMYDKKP
Procedure: To experimentally validate the binding of compound 1 and 2 on GST_SH3_p130Cas recombinant protein, fluorescence quenching experiments were performed.
The fluorescence spectra of Fl-GST_SH3_p130Cas in the absence and in the presence of 1 and 2 at different concentrations are shown in Fig. 4C.
(§1) All fluorescence spectra were recorded with a Horiba Jobin Yvon Fluorolog3 TCSPC spectrofluorophotometer with 1.0 cm quartz cells For fluorescence experiments, GST_SH3_p130Cas was firstly tagged with fluorescein (Fl-GST_SH3_p130Cas) using a methodology described in the literature[34] see Supporting Information). […] Fluorescence emission spectra of Fl-GST_SH3_p130Cas in the presence of 1 and 2 were obtained using the following concentrations: Fl-GST_SH3_p130Cas = 0.7 μM; 1 and 2 = 0–21 μM.
(§2) The variation in fluorescence emission at 518 nm of Fl-GST_SH3_p130Cas was monitored in all experiments.
Fluorescence data analysis
The obtained spectroscopic data were analysed by a […] non linear least-squares fit procedures reported in Equation 2 2: […]
in which y is the binding derived by measuring fluorescence intensity, [Q] is the concentration of tested compound, Bmax is the maximum amount of protein/compound complex (Fl-GST_SH3_p130Cas/compound) formed at saturation and Kd is the equilibrium dissociation constant. […]

[2] = system: SKH100 Trastuzumab-resistant cells; experiment: Combination with Trastuzumab in SKH100 Trastuzumab-resistant cells (MTT); assay type: cell-based, human; conditions: SKH100, Trastuzumab 100 μg/ml, three days
Procedure: (§3) Figure 6 Impact of 1 and 2 compounds on BT474 breast cancer cells. (A) To assess whether 1 and 2 could trigger cytotoxic effects on living cells, BT474 cells were treated with serial dilutions of 1 and 2 (or sterile DMSO). After three days, live cells were detected by standard MTT assay, highlighting the appearance of cytotoxic effects above 75 μM for compound 1. […] Cells were treated with different concentration of the 1 and 2 and proliferation was assayed three days later by performing MTT assay. Results were fitted with four-parameter dose-response curve using GraphPad Prism7 software. […] (E) SKBR3 cells were treated with Trastuzumab (25 μg/ml) either alone or in combination with compound 1 or 2 at the indicated doses. After three days, live cells were detected by standard MTT assay. Data are represented as mean ± SD. *p < 0.05, **p < 0.01. […] After three days, live cells were detected by standard MTT assay. […]
(§4) For proliferation assay BT474, SKBR3 and SKH100 cells were seeded in 8 replicates at 1000 cells/well concentration (25% confluency) in four different 96-well cell culture plates and then incubated with increasing concentration of 1 and 2 for 3 days. Changes in proliferation rate were detected by MTT assay (11465007001 Roche, Cell Proliferation Kit I) following manufacturer instruction. […]

[3] = system: ErbB2-negative HEK 293T cells; experiment: Proliferation assay of ErbB2-negative HEK 293T cell line; assay type: cell-based, human; conditions: serial dilutions, three days, MTT
Procedure: Figure S5. Proliferation assay of ErbB2-negative HEK 293T cell line treated with inhibitory […]
To assess whether 1 and 2 could affect cell proliferation independently from p130Cas/ErbB2 inhibition, ErbB2 ErbB2-negative cell line, HEK 293T cells were treated with serial dilutions of 1 and 2 (or sterile DMSO). After three days, live cells were detected by standard MTT assay. […]
any effect even at high concentration.
(1 picture or pasted object on this page, not shown here)

[4] = biological target: T2, endogenous p130Cas/ErbB2 complex in BT474 cells (Homo sapiens, UniProt P56945); experiment: Co-immunoprecipitation of p130Cas/ErbB2 in BT474 cells; assay type: cell-based; conditions: BT474 cells pre-treated for 24 hours
T2 construct: endogenous p130Cas/ErbB2 complex in BT474 cells; host or cells: BT474
T2 sequence (P56945 1-870): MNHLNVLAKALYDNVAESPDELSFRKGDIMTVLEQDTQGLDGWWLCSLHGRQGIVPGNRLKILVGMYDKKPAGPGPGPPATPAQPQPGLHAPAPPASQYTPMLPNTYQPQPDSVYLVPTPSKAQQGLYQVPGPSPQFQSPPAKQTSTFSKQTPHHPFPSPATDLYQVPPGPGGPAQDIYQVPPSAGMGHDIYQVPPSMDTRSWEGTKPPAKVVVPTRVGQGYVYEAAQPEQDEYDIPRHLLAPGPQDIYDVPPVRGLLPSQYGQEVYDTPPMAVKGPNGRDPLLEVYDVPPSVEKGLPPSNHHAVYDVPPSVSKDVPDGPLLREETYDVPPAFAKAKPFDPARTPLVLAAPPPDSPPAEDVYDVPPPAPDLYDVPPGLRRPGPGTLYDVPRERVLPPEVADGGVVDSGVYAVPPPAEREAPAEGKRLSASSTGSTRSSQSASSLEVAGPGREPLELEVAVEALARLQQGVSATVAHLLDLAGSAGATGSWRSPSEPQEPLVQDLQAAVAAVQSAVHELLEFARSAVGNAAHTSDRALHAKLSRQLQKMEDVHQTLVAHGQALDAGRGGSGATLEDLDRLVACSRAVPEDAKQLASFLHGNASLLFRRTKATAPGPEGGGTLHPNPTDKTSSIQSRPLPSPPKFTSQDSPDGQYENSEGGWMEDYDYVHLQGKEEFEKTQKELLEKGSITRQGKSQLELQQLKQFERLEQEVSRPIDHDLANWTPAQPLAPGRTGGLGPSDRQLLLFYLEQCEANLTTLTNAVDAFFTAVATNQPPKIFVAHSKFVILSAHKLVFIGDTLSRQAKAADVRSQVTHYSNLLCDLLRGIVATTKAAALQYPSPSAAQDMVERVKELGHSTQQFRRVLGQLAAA
Procedure: GAPDH expression was used as loading control. Data are represented as mean ± SD. **p < 0.01, ***p < 0.001.
To assess whether these compounds could interfere with p130Cas/ErbB2 association in a cellular context, ErbB2-positive BT474 breast cancer cells were pre-treated for 24 hours with 1 or 2 and subjected to co-immunoprecipitation experiments.

[5] = biological target: T3, interaction between GST_SH3_p130Cas and MBP_shortPPII_ErbB2 recombinant proteins (Homo sapiens, UniProt P56945); experiment: Competitive ELISA binding assay; assay type: biochemical; conditions: increasing concentration of compound
T3 construct: fragment of p130Cas protein (aminoacids 3–71); made in house; host or cells: Escherichia coli BL21
T3 sequence (P56945 3-71): T1 sequence (P56945 3-71)
Procedure: The day after, washing steps and saturation were performed using PBS and 3%BSA in PBS at room temperature. MBP-tagged ErbB2 purified recombinant proteins and MBP_ctrl (100 nM/well) were added in 100 μl/well of PBS for 2 h. After washing, anti-MBP mouse monoclonal antibody (0.25 μg/ml) was added for 2 h followed by peroxidase conjugated anti-mouse secondary antibody for 1 h.
For validation of inhibitory activity of selected compounds, ELISA binding assay was setup as reported above.

[6] = biological target: T4, binding between Fl-GST_SH3_p130Cas and MBP_shortPPII_ErbB2 (Homo sapiens, UniProt P56945); experiment: Fluorescence experiment: MBP_shortPPII_ErbB2 added to Fl-GST_SH3_p130Cas/compound complex; conditions: compared to compound 2; MBP_shortPPII_ErbB2 0.1-0.75 μM
T4 construct: fragment of p130Cas protein (aminoacids 3–71); made in house; host or cells: Escherichia coli BL21
T4 sequence (P56945 3-71): T1 sequence (P56945 3-71)
Procedure: as §1, with “For” for “All fluorescence spectra were recorded with a Horiba Jobin Yvon Fluorolog3 TCSPC spectrofluorophotometer with 1.0 cm quartz cells For”
as §2

[7] = system: BT474 breast cancer cells; experiment: Cell proliferation assay (MTT), BT474; assay type: cell-based; conditions: Homo sapiens, BT-474, 72 h, BT474, 3 days
Procedure: (§5) For proliferation assay BT474, SKBR3 and SKH100 cells were seeded in 8 replicates at 1000 cells/well concentration (25% confluency) in four different 96-well cell culture plates and then incubated with increasing concentration of 1 and 2 for 3 days. Changes in proliferation rate were detected by MTT assay (11465007001 Roche, Cell Proliferation Kit I) following manufacturer instruction. Sterile DMSO was used as control for non-specific solvent effect on proliferation.

SKBR3 cells = experiment: Combination with Trastuzumab in SKBR3 cells (MTT); assay type: cell-based, human; conditions: SKBR3, Trastuzumab 25 μg/ml, three days
Procedure: as §3, §4

[8] = system: SKBR3 breast cancer cells; experiment: Cell proliferation assay (MTT), SKBR3; assay type: cell-based; conditions: Homo sapiens, SK-BR-3, 72 h, SKBR3, 3 days
Procedure: as §5

BT474 cells = experiment: Cytotoxicity assay (MTT); assay type: cell-based, human; conditions: BT474, three days, serial dilutions 250-0.12 μM
Procedure: For cytotoxicity assay BT474 cells were seeded at 5000 cells/well concentration (100% confluency) in a 96-well cell culture plate and incubated with serial dilutions of 1 and 2 compounds (from 250 μM to 0.12 μM). Cytotoxicity was evaluated after 3 days by MTT assay (11465007001 Roche, Cell Proliferation Kit I) following manufacturer instruction.

[9] = system: ErbB2-positive breast cancer patients; conditions: cited from earlier work
MBP_shortPPII_ErbB2 [10] = biological target: T5, MBP_shortPPII_ErbB2 (human (by the printed accession …, UniProt P04626-1 1103-1194)); experiment: other fluorescence titration; Fl-GST_SH3_p130Cas fixed at 3.0 μM, MBP_shortPPII_ErbB2 0.05–3.0 μM; emission at 518 nm; nonlinear least-squares fit; conditions: both partners purified
T5 construct: ErbB2 cytosolic portion, aminoacids 1103-1194, holds the polyproline type II motif V[RPQPPSP]R at 1145-1153 (isoform 1, P04626-1); the printed residue limits are kept; source: E. coli BL21, purified (Sepharose amylose column), dialyzed against PBS; not shown: MBP, N-terminal, kept

[11] = biological target: T6, MBP_R → D_shortPPII_ErbB2 (human (by the printed accession …, UniProt P04626-1 1103-1194, R to D at position 44 (position 1146 in the original ErbB2 sequence))); experiment: ELISA; direct binding: 100 nM/well of GST_SH3_p130Cas (or mutants) coated in PBS overnight at 4 °C; MBP-tagged ErbB2 proteins (100 nM/well) in PBS for 2 h; detected with anti-MBP; normalized on GST_ctrl and MBP_ctrl; conditions: both partners purified
T6 construct: ErbB2 cytosolic portion, aminoacids 1103-1194, with R to D at position 44 of the fragment (1146 in ErbB2); motif V[DPQPPSP]R; source: E. coli BL21, purified (Sepharose amylose column); not shown: MBP, N-terminal, kept

MBP_shortPPII_ErbB2 [12] = biological target: T5, MBP_shortPPII_ErbB2; experiment: far-Western, overlay or dot blot; 1 μl of GST-tagged p130Cas proteins spotted on nitrocellulose; probed with MBP-tagged ErbB2 protein (1 μg/ml) in Interaction Buffer (50 mM Tris-HCl pH7.4, 150 mM NaCl, 1%Triton-X100) at 4 °C overnight; detected with anti-MBP; conditions: both partners purified
MBP_longPPII_ErbB2 = biological target: T7, MBP_longPPII_ErbB2 (human (by the printed accession …, UniProt P04626-1 1103-1255)); experiment: co-IP; in vitro binding assay: GST-tagged p130Cas and MBP-tagged ErbB2 purified proteins mixed in Interaction Buffer with 1% BSA overnight at 4 °C; immunoprecipitated with anti-MBP and proteinA Sepharose; blot anti-GST; conditions: both partners purified
T7 construct: ErbB2 cytosolic portion, aminoacids 1103-1255 (isoform 1, P04626-1); the printed residue limits are kept; source: E. coli BL21, purified (Sepharose amylose column), dialyzed against PBS; not shown: MBP, N-terminal, kept

Molecule: O=C(CNC(=O)NC1CC1)Nc1nnc(C23CC4CC(CC(C4)C2)C3)s1 [Compound 1]
Kd [1]: 0.2 µM
effect on sensitivity of resistant cells to Trastuzumab [2]: partially restores
effect on cell proliferation [3]: no significant effect
association of p130Cas to ErbB2 (co-immunoprecipitation) [4]: reduced the association
inhibition of GST_SH3_p130Cas/MBP_shortPPII_ErbB2 association [5]: dose-dependent inhibition
efficiency in preventing binding between Fl-GST_SH3_p130Cas and MBP_shortPPII_ErbB2 [6]: more efficient
EC50 [7]: 52.3 ± 6.38 µM
effect on efficacy of Trastuzumab treatment (SKBR3 cells): significantly enhances

EC50 [8]: 274 ± 27.2 µM
Kd ([1]; fluorescence quenching of Fl-GST_SH3_p130Cas, emission at 518 nm, nonlinear least-squares fit, read-out: KD (equilibrium dissociation constant)): 5 µM
association of p130Cas to ErbB2 (co-immunoprecipitation) [4]: reduced the association
inhibition of GST_SH3_p130Cas/MBP_shortPPII_ErbB2 association [5]: dose-dependent inhibition
EC50 [7]: 240 ± 26 µM
Molecule: NS(=O)(=O)N[C@H]1CCCc2ccccc21 [Compound 2]
effect on cell proliferation [3]: did not have
concentration at which cytotoxic effects appear (BT474 cells): > 250 µM

inhibition of GST_SH3_p130Cas/MBP_shortPPII_ErbB2 association [5]: no modulation
Molecule: N#CC(Cc1ccc(O)cc1)c1ccc(O)cc1 (stereo not drawn) [DPN, Diarylpropionitrile, reference compound]

Molecule: T-DM1
patients in whom treatment failed to induce response [9]: 57%

Kd (MBP_shortPPII_ErbB2 [10]): 0.0407 µM
B1: Fl-GST_SH3_p130Cas (domain or fragment, UniProt P56945 3-71, looked up)
chain: T1 sequence (P56945 3-71)
modifications: also: fluorescein (site not given here)
notes: source: E. coli BL21, purified (Sepharose glutathione column), then tagged with fluorescein; not shown: GST, N-terminal, kept

binding result [11]: binds
binding result (MBP_shortPPII_ErbB2 [12]): binds
binding result (MBP_longPPII_ErbB2): binds
B2: GST_SH3_p130Cas (domain or fragment, UniProt P56945 3-71, looked up)
chain: T1 sequence (P56945 3-71)
notes: p130Cas SH3 domain, aminoacids 3-71, amplified from cDNA and cloned in pGEX-4T3; also called SH3 domain of p130Cas; source: E. coli BL21, purified (Sepharose glutathione column), dialyzed against PBS; not shown: GST, N-terminal, kept

From article PMC6395809 (Scientific Reports, 2019)
